Values joined by “and” are separate entries in the source; they are usually repeats but may differ in a detail not shown here. Identical values can stand only once. Inconclusive results and toxic doses are left out. Cut-off read from the data, not from the text of the source: active = T/C of 150% or more; inactive = T/C below 125%.
Test system: L1210 leukemia ip in BDF1 mice, survival T/C
Assay: NCI In Vivo Anticancer Drug Screen. Data for tumor model L1210 Leukemia (intraperitoneal) in B6D2F1 (BDF1) mice
Conditions: endpoint: mean survival time, higher = longer survival
How it was run: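 Ratio derived from survival: compound-dosed mice over vehicle-dosed mice, all bearing a transplantable tumor.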

[1] = dose: 100.0 mg/kg/injection, schedule: Q04DX003 (ip), vehicle: Klucel (hydroxypropylcellulose) (HPC)
[2] = dose: 200.0 mg/kg/injection, schedule: Q04DX003 (ip), vehicle: Klucel (hydroxypropylcellulose) (HPC)
[3] = dose: 400.0 mg/kg/injection, schedule: Q04DX003 (ip), vehicle: Klucel (hydroxypropylcellulose) (HPC)
[4] = dose: 75.0 mg/kg/injection, schedule: Q01DX001 (ip), vehicle: saline
[5] = dose: 100.0 mg/kg/injection, schedule: Q01DX009 (ip), vehicle: saline with Tween-80
[6] = dose: 50.0 mg/kg/injection, schedule: Q01DX009 (ip), vehicle: Klucel (hydroxypropylcellulose) (HPC)
[7] = dose: 100.0 mg/kg/injection, schedule: Q01DX009 (ip), vehicle: Klucel (hydroxypropylcellulose) (HPC)
[8] = dose: 200.0 mg/kg/injection, schedule: Q01DX009 (ip), vehicle: Klucel (hydroxypropylcellulose) (HPC)
[9] = dose: 100.0 mg/kg/injection, schedule: Q04DX003 (ip), vehicle: saline with Tween-80
[10] = dose: 200.0 mg/kg/injection, schedule: Q04DX003 (ip), vehicle: saline with Tween-80
[11] = dose: 400.0 mg/kg/injection, schedule: Q04DX003 (ip), vehicle: saline with Tween-80

Measured: T/C

ClC1=C(Cl)C2(Cl)C(Br)C(Br)C1(Cl)C2(Cl)Cl (configuration not stated)
inactive: dose: 100.0 mg/kg/injection, schedule: Q01DX009 (ip), vehicle: saline sonified 95 % of control | [1] 102 % of control | dose: 200.0 mg/kg/injection, schedule: Q01DX009 (ip), vehicle: saline sonified 96 % of control | [2] 93 % of control | dose: 400.0 mg/kg/injection, schedule: Q01DX009 (ip), vehicle: saline sonified 95 % of control | [3] 96 % of control

CCC(O)C(CCN(C)C)(C(=O)N(C)C)c1ccccc1 (configuration not stated)
inactive: [4] 98 % of control | dose: 150.0 mg/kg/injection, schedule: Q01DX001 (ip), vehicle: saline 100 % of control

c1ccc(-c2c(-c3ccccc3)c(-c3ccccc3)c(-c3ccc(Oc4ccc(-c5c(-c6ccccc6)c(-c6ccccc6)c(-c6ccccc6)c(-c6ccccc6)c5-c5ccccc5)cc4)cc3)c(-c3ccccc3)c2-c2ccccc2)cc1
inactive: dose: 100.0 mg/kg/injection, schedule: Q01DX001 (ip), vehicle: saline with Tween-80 92 % of control | dose: 200.0 mg/kg/injection, schedule: Q01DX001 (ip), vehicle: saline with Tween-80 92 % of control | dose: 400.0 mg/kg/injection, schedule: Q01DX001 (ip), vehicle: saline with Tween-80 100 % of control

COc1ccc(C(=S)N2CCN(c3ccc(C)cc3)CC2)cc1
inactive: dose: 100.0 mg/kg/injection, schedule: Q01DX001 (ip), vehicle: saline 98 % of control | dose: 200.0 mg/kg/injection, schedule: Q01DX001 (ip), vehicle: saline 95 % of control | dose: 400.0 mg/kg/injection, schedule: Q01DX001 (ip), vehicle: saline 95 % of control

CCCn1c(O)c(C(=O)CC)sc1=S
inactive: dose: 50.0 mg/kg/injection, schedule: Q01DX009 (ip), vehicle: saline with Tween-80 95 % of control | [5] 88 % of control

Oc1ccc2ccccc2c1N=Nc1cc[c]([Hg][Cl])cc1
inactive: dose: 5.0 mg/kg/injection, schedule: Q01DX001 (ip), vehicle: saline 91 % of control | dose: 10.0 mg/kg/injection, schedule: Q01DX001 (ip), vehicle: saline 107 % of control | dose: 20.0 mg/kg/injection, schedule: Q01DX001 (ip), vehicle: saline 96 % of control | dose: 40.0 mg/kg/injection, schedule: Q01DX001 (ip), vehicle: saline 100 % of control

O=c1nc(NCCc2cnc[nH]2)nc(NCCc2cnc[nH]2)[nH]1
inactive: [6] 100 % of control | [7] 100 % of control | [8] 92 % of control

COc1ccc(C(C#N)N2CCOCC2)cc1 (configuration not stated)
inactive: [6] 92 % of control | [7] 93 % of control | [1] 96 % of control | [8] 96 % of control | [2] 91 % of control

c1ccc(Oc2nnc3c4ccccc4ccn23)cc1
inactive: dose: 100.0 mg/kg/injection, schedule: Q01DX001 (ip), vehicle: carboxymethylcellulose (CMC) 98 % of control | dose: 200.0 mg/kg/injection, schedule: Q01DX001 (ip), vehicle: carboxymethylcellulose (CMC) 98 % of control | dose: 400.0 mg/kg/injection, schedule: Q01DX001 (ip), vehicle: carboxymethylcellulose (CMC) 98 % of control

Cc1c(C(=O)O)nnn1/C=C/c1ccccc1
inactive: dose: 100.0 mg/kg/injection, schedule: Q04DX003 (ip), vehicle: acetone 103 % of control | dose: 200.0 mg/kg/injection, schedule: Q04DX003 (ip), vehicle: acetone 87 % of control

CCCC1OC1CCC (configuration not stated)
inactive: [9] 109 % of control | [10] 97 % of control | [11] 91 % of control

O=S1CCCO1 (configuration not stated)
inactive: dose: 4.7 mg/kg/injection, schedule: Q01DX009 (ip), vehicle: saline 100 % of control | dose: 9.4 mg/kg/injection, schedule: Q01DX009 (ip), vehicle: saline 96 % of control | dose: 18.8 mg/kg/injection, schedule: Q01DX009 (ip), vehicle: saline 93 % of control | [4] 98 % of control

COc1cc([N+](=O)[O-])ccc1NC(=O)c1cccc([N+](=O)[O-])c1C(=O)O
inactive: dose: 100.0 mg/kg/injection, schedule: Q04DX002 (ip), vehicle: Klucel (hydroxypropylcellulose) (HPC) 95 % of control | dose: 200.0 mg/kg/injection, schedule: Q04DX002 (ip), vehicle: Klucel (hydroxypropylcellulose) (HPC) 103 % of control | dose: 400.0 mg/kg/injection, schedule: Q04DX002 (ip), vehicle: Klucel (hydroxypropylcellulose) (HPC) 100 % of control

CC1CCC(C)(C)C1=O (configuration not stated)
inactive: dose: 100.0 mg/kg/injection, schedule: Q01DX009 (ip), vehicle: saline 106 % of control | dose: 200.0 mg/kg/injection, schedule: Q01DX009 (ip), vehicle: saline 96 % of control | dose: 400.0 mg/kg/injection, schedule: Q01DX009 (ip), vehicle: saline 98 % of control

C[CH2][Pb]([CH2]C)([CH2]C)[O][As](=O)(O)c1ccc(N)cc1
inactive: dose: 0.75 mg/kg/injection, schedule: Q01DX009 (ip), vehicle: Klucel (hydroxypropylcellulose) (HPC) 98 % of control | dose: 1.5 mg/kg/injection, schedule: Q01DX009 (ip), vehicle: Klucel (hydroxypropylcellulose) (HPC) 102 % of control | dose: 1.5 mg/kg/injection, schedule: Q04DX003 (ip), vehicle: Klucel (hydroxypropylcellulose) (HPC) 96 % of control | dose: 3.0 mg/kg/injection, schedule: Q01DX009 (ip), vehicle: Klucel (hydroxypropylcellulose) (HPC) 96 % of control and 102 % of control | dose: 3.0 mg/kg/injection, schedule: Q04DX003 (ip), vehicle: Klucel (hydroxypropylcellulose) (HPC) 100 % of control | dose: 6.0 mg/kg/injection, schedule: Q04DX003 (ip), vehicle: Klucel (hydroxypropylcellulose) (HPC) 98 % of control

c1ccc2ncccc2c1
inactive: [1] 101 % of control | [2] 95 % of control

O=C(O)C1CCC(CC2CCC2)CC1 (configuration not stated)
inactive: dose: 100.0 mg/kg/injection, schedule: Q01DX001 (ip), vehicle: Klucel (hydroxypropylcellulose) (HPC) 95 % of control | [1] 98 % of control | dose: 200.0 mg/kg/injection, schedule: Q01DX001 (ip), vehicle: Klucel (hydroxypropylcellulose) (HPC) 100 % of control | [2] 98 % of control | dose: 400.0 mg/kg/injection, schedule: Q01DX001 (ip), vehicle: Klucel (hydroxypropylcellulose) (HPC) 92 % of control | [3] 95 % of control

CC(C)CCCC(C)C1CCC2C3CC(=O)OC4CC(Br)CCC4(C)C3CCC12C (configuration not stated)
inactive: [9] 101 % of control | [10] 101 % of control | [11] 102 % of control

O=C(Nc1cccc(C(F)(F)F)c1)Nc1cccc2c1C(=O)c1ccccc1C2=O
inactive: [5] 88 % of control | dose: 200.0 mg/kg/injection, schedule: Q01DX009 (ip), vehicle: saline with Tween-80 87 % of control

O=C(O)C(Br)C(Br)C(=O)Nc1cccc(C(F)(F)F)c1 (configuration not stated)
inactive: dose: 25.0 mg/kg/injection, schedule: Q01DX009 (ip), vehicle: Klucel (hydroxypropylcellulose) (HPC) 96 % of control | [6] 96 % of control | [7] 103 % of control | dose: 100.0 mg/kg/injection, schedule: Q01DX009 (ip), vehicle: other 96 % of control

CC1(C)N=C(N)N=C(N)N1c1ccc(CCCCc2ccc(S(=O)(=O)F)cc2)c(Cl)c1
inactive: dose: 7.5 mg/kg/injection, schedule: Q01DX001 (ip), vehicle: saline 99 % of control | dose: 7.5 mg/kg/injection, schedule: Q04DX003 (ip), vehicle: saline 104 % of control | dose: 13.0 mg/kg/injection, schedule: Q01DX007 (ip), vehicle: saline with Tween-80 109 % of control | dose: 15.0 mg/kg/injection, schedule: Q01DX001 (ip), vehicle: saline 99 % of control | dose: 15.0 mg/kg/injection, schedule: Q04DX003 (ip), vehicle: saline 106 % of control | dose: 20.0 mg/kg/injection, schedule: Q01DX007 (ip), vehicle: saline with Tween-80 116 % of control | dose: 30.0 mg/kg/injection, schedule: Q01DX001 (ip), vehicle: saline 94 % of control | dose: 30.0 mg/kg/injection, schedule: Q01DX007 (ip), vehicle: saline with Tween-80 122 % of control | dose: 30.0 mg/kg/injection, schedule: Q04DX003 (ip), vehicle: saline 109 % of control | dose: 45.0 mg/kg/injection, schedule: Q01DX007 (ip), vehicle: saline with Tween-80 95 % of control

CCCCCCCCCCCCCCS(=O)(=O)CCCl
inactive: dose: 100.0 mg/kg/injection, schedule: Q04DX003 (ip), vehicle: carboxymethylcellulose (CMC) 98 % of control | dose: 200.0 mg/kg/injection, schedule: Q04DX003 (ip), vehicle: carboxymethylcellulose (CMC) 94 % of control | dose: 400.0 mg/kg/injection, schedule: Q04DX003 (ip), vehicle: carboxymethylcellulose (CMC) 94 % of control
